Reference: US9725720B2, “Low molecular weight cationic lipids for oligonucleotide delivery” (SIRNA THERAPEUTICS, INC., priority 2010, dated 2017)

How the values were obtained:
[1] = Rat in vivo toxicity: survival after LNP dosing; conditions: for rats that failed to survive 48 hours: 3 mg/kg
[2] = test system: mRNA transcript for the firefly (Photinus pyralis) luciferase gene; assay: Mouse in vivo evaluation of efficacy (luciferase siRNA LNP, LSL-Luc transgenic mice, IVIS imaging); conditions: RDV containing the compound + Luc siRNA, tail vein, 0.1 to 0.5 mg/kg siRNA, 48 hours post dose; compared with RDV containing octyl-CLinDMA (OCD); FIG. 1
Procedure: LNPs utilizing Compounds 1-12, in the nominal compositions described immediately above, were evaluated for in vivo efficacy. The siRNA targets the mRNA transcript for the firefly (Photinus pyralis) luciferase gene (Accession #M15077). […] The in vivo luciferase model employs a transgenic mouse in which the firefly luciferase coding sequence is present in all cells. ROSA26-LoxP-Stop-LoxP-Luc (LSL-Luc) transgenic mice licensed from the Dana Farber Cancer Institute are Induced to express the Luciferase gene by first removing the LSL sequence with a recombinant Ad-Cre virus (Vector Biolabs). Due to the organotropic nature of the virus, expression is limited to the liver when delivered via tail vein injection. Luciferase expression levels in liver are quantitated by measuring light output, using an IVIS imager (Xenogen) following administration of the luciferin substrate (Caliper Life Sciences). Pre-dose luminescence levels are measured prior to administration of the RDVs. Luciferin in PBS (15 mg/mL) is intraperitoneally (IP) injected in a volume of 150 μL. After a four minute incubation period mice are anesthetized with isoflurane and placed in the IVIS imager. The RDVs (containing siRNA) in PBS vehicle were tail vein injected n a volume of 0.2 mL. […] In vivo efficacy results are expressed as % inhibition of luminescence relative to pre-dose luminescence levels. […]

[3] = Determination of cationic lipid levels in rat liver (LC/MS-MS); format: in vivo; conditions: rats dosed with RDV containing the compound; compared with RDV containing DLinKC2DMA (Compound 20) or MC3 (Compound 21); FIG. 3
Procedure: Liver tissue was weighed into 20-ml vials and homogenized in 9 v/w of water using a GenoGrinder 2000 (OPS Diagnostics, 1600 strokes/min, 5 min). A 50 μL aliquot, of each tissue homogenate was mixed with 300 μL of extraction/protein precipitating solvent (50/50 acetonitrile/methanol containing 500 nM internal standard) and the plate was centrifuged to sediment precipitated protein. A volume of 200 μL of each supernatant was then transferred to separate wells of a 96-well plate and 10 μl samples were directly analyzed by LC/MS-MS.
Standards were prepared by spiking known amounts of a methanol stock solution of compound into untreated rat liver homogenate (9 vol water/weight liver). Aliquots (50 μL) each standard/liver homogenate was mixed with 300 μL of extraction/protein precipitating solvent (50/50 acetonitrile/methanol containing 500 nM internal standard) and the plate was centrifuged to sediment precipitated protein. A volume of 200 μL of each supernatant was transferred to separate wells of a 96-well plate and 10 μl of each standard was directly analyzed by LC/MS-MS.
Absolute quantification versus standards prepared and extracted from liver homogenate was performed using an Aria LX-2 HPLC system (Thermo Scientific) coupled to an API 4000 triple quadrupole mass spectrometer (Applied Biosystems). […]

Row | SMILES | rats that failed to survive 48 hours [1] | in vivo efficacy (% inhibition of luminescence relative to pre-dose luminescence levels) [2] | rats that survived at 48 hours post dose ([1]; female, Sprague-Dawley (Crl:CD(SD)), rat, in vivo, 48 h) | cationic lipid liver levels [3]
1 | CCCCC/C=C\C/C=C\CCCCCCCCC(CCCCCCCC/C=C\C/C=C\CCCCC)OC(=O)CCCN(C)C [Compound 21, MC3] | 2 out of 4 | – | – | –
2 | CCCCC/C=C\C/C=C\CCCCCCCCOC[C@H](CCCCCCCCC)N(C)C [Compound 1, (2S)—N,N-dimethyl-1-[(9Z,12Z)-octadeca-9,12-dien-1-yloxy]undecan-2-amine] | – | Greater efficacy | 1 out of 4 | lower
3 | CCCCC/C=C\C/C=C\CCCCCCCCC1(CCCCCCCC/C=C\C/C=C\CCCCC)OCC(CCN(C)C)O1 (centres unmarked) [Compound 20, DLinKC2DMA] | 3 out of 4 | – | – | –
